In US11076595B2, “1-(n,n-disubstituted carbamoyl) 4-(substituted sulfonyl)triazolin-5-one derivative, 4-(n,n-disubstituted carbamoyl) 1-(substituted sulfonyl)triazolin-5-one derivative, and herbicide containing said derivative as active ingredient” (HOKKO CHEMICAL INDUSTRY CO., LTD., priority 2017, dated 2021):

Experiments:
Format in all cases: in vivo
Monochoria vaginalis [1] = assay: Test Example 12: herbicidal effect test by treatment during growing period in paddy field; conditions: 120 g/10a; treatment seven days after sowing in flooded paddy pot; assessed 14 days after treatment
Outline: (§1)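 Read-out: weed suppression (%) = (1 − treated/untreated mean dry weight) × 100, scored 14 days after treatment with two replications. Pots held puddled paddy soil, 30 seeds per species sown 0–1 cm, flooded ~3 cm. Post-emergence dropwise water application at 7 days after sowing, 120 g a.i./10 are.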

Lindernia pyxidaria [2] = assay: as above; conditions: 120 g/10a; treatment seven days after sowing in flooded paddy pot; assessed 14 days after treatment
Outline: as §1

Echinochloa crus-galli [3] = assay: as above; conditions: 120 g/10a; treatment seven days after sowing in flooded paddy pot; assessed 14 days after treatment
Outline: as §1

Scirpus juncoides [4] = assay: as above; conditions: 120 g/10a; treatment seven days after sowing in flooded paddy pot; assessed 14 days after treatment
Outline: as §1

Monochoria vaginalis [5] = assay: Test Example 11: herbicidal effect test by soil treatment in paddy field; conditions: 120 g/10a active ingredient, 14 days after treatment
Outline: (§2)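 Seeds were sown 0-1 cm deep in puddled, fertilised paddy soil in Wagner pots and kept under about 3 cm of flooding in a greenhouse. Diluted emulsifiable concentrate was added dropwise right after sowing at 120 g a.i. per 10 are. Suppression (%) came from dry weight versus untreated pots after 14 days, two replicates.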

Lindernia pyxidaria [6] = assay: as above; conditions: 120 g/10a active ingredient, 14 days after treatment
Outline: as §2

Echinochloa crus-galli [7] = assay: as above; conditions: 120 g/10a active ingredient, 14 days after treatment
Outline: as §2

Scirpus juncoides [8] = assay: as above; conditions: 120 g/10a active ingredient, 14 days after treatment
Outline: as §2

Compound	Weed suppression rate (%) Monochoria vaginalis (Monochoria vaginalis [1]) [%]	Weed suppression rate (%) Lindemia pyxidaria (Lindernia pyxidaria [2]) [%]	Weed suppression rate (%) Echinochloa crus-galli (Echinochloa crus-galli [3]) [%]	Weed suppression rate (%) Scirpus juncoides (Scirpus juncoides [4]) [%]	Weed suppression rate (%) Monochoria vaginalis (Monochoria vaginalis [5]) [%]	Weed suppression rate (%) Lindemia pyxidaria (Lindernia pyxidaria [6]) [%]	Weed suppression rate (%) Echinochloa crus-galli (Echinochloa crus-galli [7]) [%]	Weed suppression rate (%) Scirpus juncoides (Scirpus juncoides [8]) [%]
CC(C)N(C(=O)n1cnn(S(=O)(=O)c2ccc(C(C)(C)C)cc2)c1=O)c1ccc(Cl)cc1Br [Compound 11-694]	70	60	70	80	70	80	90	70
CC(C)N(C(=O)n1cnn(S(=O)(=O)c2cccs2)c1=O)c1c(F)c(F)cc(F)c1F [Compound 11-1027]	90	80	100	100	90	100	100	100
Cc1cc(F)ccc1N(C(=O)n1cnn(S(=O)(=O)C2CCCCC2)c1=O)C(C)C [Compound 11-307]	60	70	90	60	70	70	80	80
Cc1cc(Cl)ccc1N(C(=O)n1cnn(S(=O)(=O)N(C)C)c1=O)C(C)C [Compound 11-1079]	80	80	90	90	80	80	90	90
Cc1cc(C)c(S(=O)(=O)n2ncn(C(=O)N(c3ccc(F)c(F)c3F)C(C)C)c2=O)c(C)c1 [Compound 11-866]	90	70	80	60	90	100	100	90
Cc1cc(C)c(S(=O)(=O)n2ncn(C(=O)N(c3c(F)c(F)cc(F)c3F)C(C)C)c2=O)c(C)c1 [Compound 11-868]	80	90	90	60	70	100	100	100
CC(C)N(C(=O)n1cnn(S(=O)(=O)c2c(F)cccc2F)c1=O)c1c(F)cc(F)cc1F [Compound 11-777]	80	70	90	70	80	90	100	100
CN(C(=O)n1cnn(S(=O)(=O)c2cccs2)c1=O)c1ccc(F)cc1F [Compound 11-1147]	90	70	100	100	70	100	100	70
CC(C)N(C(=O)n1cnn(S(=O)(=O)N(C)C)c1=O)c1ccc(Cl)cc1Br [Compound 11-1076]	30	60	90	60	60	60	90	60
Cc1cc(F)ccc1N(C(=O)n1cnn(S(=O)(=O)c2ccc(Cl)cc2)c1=O)C(C)C [Compound 11-601]	70	70	60	60	80	80	70	60
Cc1ccc(N(C(=O)n2cnn(S(=O)(=O)c3ccccc3F)c2=O)C(C)C)c(F)c1 [Compound 11-416]	80	80	90	90	80	80	90	90
Cc1ccc(N(C(=O)n2cnn(S(=O)(=O)c3ccccc3Cl)c2=O)C(C)C)c(F)c1 [Compound 11-526]	80	80	90	90	80	80	90	90
CC(C)N(C(=O)n1cnn(S(=O)(=O)c2cccs2)c1=O)c1ccc(Cl)cc1Br [Compound 11-1034]	70	70	90	70	70	90	100	100
COc1ccc(S(=O)(=O)n2ncn(C(=O)N(c3ccc(F)c(F)c3F)C(C)C)c2=O)cc1 [Compound 11-1153]	100	70	100	90	90	100	100	60
CCN(C(=O)n1cnn(S(=O)(=O)c2ccccc2)c1=O)C1CCCCC1 [Compound 11-353]	80	80	90	90	80	80	90	90
CC(C)S(=O)(=O)n1ncn(C(=O)N(C)c2ccc(F)cc2F)c1=O [Compound 11-1127]	70	70	100	100	70	80	100	80
